These results are taken from patent US20260373248A1, “DEGRADABLE PEPTOIDS” (Medici Therapeutics, Inc., priority 2023, published 2026).

The subject of one series is hEPO. The experiment in a line: Quantification of hEPO in serum after IV injection of mRNA (Human EPO ELISA). The class given is in vivo. The settings on record: Balb/c mice, 2.5 μg mRNA IV, serum after 6 hours. How it is done:
Balb/c mice were treated with 2.5 μg of mRNA coding for human erythropoiten via IV injection according to a similar method as in Example 4. hEPO protein in the serum was quantified after 6 hours using the Human EPO ELISA Kit from Invitrogen (catalog #BMS2035-2). Wash buffer (PBS with 1% tween 20) and assay buffer (PBS with 1% tween 20, 10% BSA) were prepared from a 20× concentrate with milli-Q water. Serum samples were diluted with PBS according to expected EPO concentration, with a 50× dilution for low expression samples and up to a 30,000× dilution for samples expected to have high expression. Microwell strips were washed in a plate washer with wash buffer and tapped on an absorbent pad to remove excess buffer. 100 μL of sample diluent were added to each well that will be used for the standard curve. 50 μL of sample diluent was added to each sample well.
The standard curve was prepared by reconstituting the human erythropoietin standard by adding the volume of water listed on the vial label. Standard was swirled gently and allowed to reconstitute for 10 minutes prior to use, then 100 μL is added to standard wells and mixed well. 100 μL from standard wells were then transferred to sample wells and mixed well. This was repeated 5 times to produce 2 columns of standard dilutions from 100 to 1.6 mIU/mL. 100 μL was discarded from the last microwells. The final 2 wells contained 100 μL of sample diluent and served as a blank. An external standard was also included to facilitate a mIU/mL conversion to ng/mL. The same serial dilution method was repeated starting with the external standard at 6.25 ng/mL. Once the standards were added, 50 μL of each sample was added in duplicate to the sample wells. Next, the biotin-conjugate was prepared by diluting 1:100 in assay buffer. 50 μL of biotin-conjugate was added to all wells and the plate was covered with a plate seal and shaken at room temperature for 1 hour. During the last few minutes of shaking, streptavidin-HRP was prepared by diluting 1:100 in assay buffer. The plate was washed on a plate washer and tapped on an absorbent pad to remove remaining wash buffer.
100 μL of the diluted streptavidin-HRP was added to each well and the plate was sealed and shaken for 15 minutes at room temperature. After 15 minutes, the plate seal was removed and the plate was washed on a plate washer and remaining wash buffer tapped out on an absorbent pad. 100 μL of TMB substrate was added to all wells and the plate was incubated for 10 minutes at room temperature out of direct light. Color development was checked every few minutes and the assay was stopped when the highest standard was dark blue. The reaction was stopped by pipetting 100 μL of stop solution into each well. Immediately after stop solution was added, the plate was gently tapped to ensure the solution was mixed. Absorbance was then read at 450 nm for each well. A standard curve was plotted for both the kit-provided standards (mIU/mL) and the external standard (ng/mL) and fit using Prism. Sample absorbances that fell within the standard curve were interpolated and adjusted for dilution (including a 2× assay dilution). Samples that were not within the standard curve were repeated at an adjusted dilution.

Another series deals with mRNA. The experiment in a line: mRNA encapsulation (modified Quant-iT RiboGreen assay). The class given is physicochemical. As to conditions: RiboGreen, without vs with Triton X-100. As for the experimental part:
The mRNA concentration and the percentage of encapsulated mRNA were determined using fluorescent-based Quant-iT RiboGreen RNA Reagent Kit (Life Technologies, Waltham, MA) as described previously. To determine the mRNA concentration, PNPs was incubated with […] for 10 min to release entrapped mRNA, followed by addition of RiboGreen RNA reagent. The fluorescence intensity of mRNA-RiboGreen reagent complex (excitation at 485 nm and emission at 530 nm) was detected using a microplate reader. The ratio of fluorescence without and with Triton X-100 were used to calculate the percentage of encapsulated mRNA.
(§1) Degradable peptoids described herein were formulated as various formulations described in Table 3 according to the procedure described in Example 2. Particle size was characterized as described in Example 2, and […] encapsulation of mRNA was determined as described in Example 3.

The test system of a further series is luciferase. The experiment in a line: Luciferase expression after local (intramuscular or subcutaneous) administration of mRNA. It counts as in vivo. As to conditions: mRNA 0.01 mpk, 6 hours; for IM Flux: intramuscular; for SC Flux: subcutaneous. How it is done: (§2) All animal studies were conducted under accreditation by the California State Department of Public Health and under supervision of IACUC and Veterinarian Supervision. For imaging studies, female Balb/c mice (6-8 weeks old) were obtained and acclimatized for a minimum of 3 days prior to experiments. The animals were maintained on a 12 hour light cycle in a temperature and humidity controlled room. A daily health check was performed as well as food and water check. For dosing, mice were injected with 2.5 ug fLuc mRNA-containing Nutshells intravenously in 100 μL total injection value. At 6 hours post-injection, mice were anesthetized with isoflurane, injected IP with 30 mg/mL D-luciferin at a dose of 10 μL per gram bodyweight intraperitoneally. Imaging was done 10 minutes post D-luciferin injection using an IVIS Spectrum Imaging System (Caliper Life Sciences). Immediately after in vivo imaging, mice were terminally bled by cardiac puncture and euthanized. The organs of interest were harvested, placed in black 24-well plates, and imaged. Living Image software (Perkin Elmer) was used to quantify the total photon flux in regions of interest.
Aminolipidated peptoids were also effective for local administration of mRNA through subcutaneous (S.C.) or intramuscular (I.M.) routes of administration. For these examples, mRNA was administered at a dose of 0.1 mpk for intratomoral, or 0.01 mpk for subcutaneous and intramuscular administration, and the resulting bioluminescence quantified after 6 hours according to a similar procedure as described in Example 4.

The next series relates to firefly luciferase. The experiment in a line: In vivo firefly luciferase expression after intravenous injection of fLuc mRNA delivery vehicles (IVIS imaging). The arrangement: species or system female Balb/c mice. As to conditions: mice, 2.5 ug fLuc mRNA intravenously, 6 hours post-injection. As for the experimental part:
as §2
Luciferase expression in these formulations was also determined as described in Example 4.

Series [1] is described as follows: Delivery vehicle size and polydispersity by dynamic light scattering. It counts as physicochemical. The settings on record: DLS in PBS; peptoid:DSPC:Cholesterol:DMG-PEG2000 weight ratio 20:1.79:7.16:1.84, mRNA. As for the experimental part:
Delivery vehicles were formulated by rapid microfluidic mixing using a high throughput microfluidic system. Briefly, ethanol solutions containing peptoid, DSPC, Cholesterol, DMG-PEG2000 at weight ratio of 20:1.79:7.16:1.84, were mixed with 10 mM sodium citrate buffer (pH 5.0) containing synthesized mRNA at a ratio of 1:3 by volume. Peptoid based LNPs were subsequently dialyzed against 1-2 liters of tris-sucrose buffer (TS7, pH 7.4) overnight at 4 °C. Delivery vehicle size and polydispersity (PDI) was measured by dynamic light scattering in PBS.
as §1

A short description of series [2]: Peptoid quantity remaining in liver by HPLC-TOF mass spectrometry. The settings on record: liver homogenate. The class given is in vivo. How it is done:
Peptoid quantity in liver was determined via high-performance liquid chromatography coupled with time-of-flight mass spectrometer (HPLC-TOF). The entire liver was weighed, and then two sections were isolated using a provided biopsy punch for liver homogenization. Liver homogenate sample was prepared by resuspending 20 mg liver tissue in 400 μL extraction solvent (IPA/MeOH=8/2) containing an internal standard (400 pg/μL) followed by bead homogenization (45 sec per cycle for 3-4 cycles). Homogenized samples were centrifuged at 12,000 rpm for 8 min at 6 °C. The resulting supernatant was collected and stored at −20 °C for further LC analysis. 5 μL of the resulting supernatant sample from solid or liquid tissue was injected into a BEH C8 column on an Agilent 1290 Infinity II liquid chromatograph coupled with an Agilent 6230 LC-TOF system. Concentrations of peptoids were determined by a linear calibration curve (linear range:0.2-50 μg/g for solid tissue). Standard calibration curve solutions were prepared by spiking untreated liver followed by homogenization and centrifugation.

Non-standard residues stand in square brackets, D forms with d. Residues, ends and D or L forms follow the SMILES beside them. *: point of attachment. Gly(N-(3-decanoyloxypropyl)) = CCCCCCCCCC(=O)OCCCNCC(=O)O; N(3-lauroyloxypropyl)Gly = CCCCCCCCCCCC(=O)OCCCNCC(=O)O; Gly(N-(CH2)3O-octanoyl) = CCCCCCCC(=O)OCCCNCC(=O)O; N(3-imidazol-1-ylpropyl)Gly = O=C(O)CNCCCn1ccnc1; Gly(N-3-morpholinopropyl) = O=C(O)CNCCCN1CCOCC1; N(2-ethylhexyl)Gly = CCCCC(CC)CNCC(=O)O; NDecylGly = CCCCCCCCCCNCC(=O)O; NHexGly = CCCCCCNCC(=O)O; For = O=C*

The compound `CCCCCCCCCCCC(=O)OCCCN(CC(=O)N(CCCOC(=O)CCCCCCCCCCC)CC(=O)N(CCCCCC)CC(=O)N(CCCOC(=O)CCCCCCCCCCC)CC(=O)N(CCCOC(=O)CCCCCCCCCCC)CC(=O)N(CCCCCC)CC(N)=O)C(=O)CN(C=O)CCCN1CCOCC1` [Compound 71] (For-[Gly(N-3-morpholinopropyl)][N(3-lauroyloxypropyl)Gly][N(3-lauroyloxypropyl)Gly][NHexGly][N(3-lauroyloxypropyl)Gly][N(3-lauroyloxypropyl)Gly][NHexGly]-NH2) came in with a hEPO with hEPO of 38.1 ng/mL. Also, the “mean percent encapsulation of RNA” value in the series with mRNA was 13.1%. In the series with luciferase, the “IM Flux” value came to 3.61E+08 p/s and the “SC Flux” value amounted to 9.18E+07 p/s. In addition, the “Total Flux” value in the series with firefly luciferase turned out to be 4.43E+08 p/s. Also, in series [1], the PDI is 0.238 and the “Particle Size” value stood at 86.9 nm.
`CCCCCCCCCCN(C=O)CC(=O)N(CCCOC(=O)CCCCCCCCC)CC(=O)N(CC(=O)N(CCCN1CCOCC1)CC(=O)N(CC(=O)N(CCCOC(=O)CCCCCCCCC)CC(=O)N(CCCCCCCCCC)CC(N)=O)CC(CC)CCCC)CC(CC)CCCC` (stereo not drawn) [Compound 117] (For-[NDecylGly][Gly(N-(3-decanoyloxypropyl))][N(2-ethylhexyl)Gly][Gly(N-3-morpholinopropyl)][N(2-ethylhexyl)Gly][Gly(N-(3-decanoyloxypropyl))][NDecylGly]-NH2): in the series on hEPO, the hEPO was 685 ng/mL. In addition, in the series on mRNA, the “mean percent encapsulation of RNA” value was 49.8%. Also, in the series with luciferase, the “IM Flux” value was determined as 2.10E+08 p/s and the “SC Flux” value is given as 6.43E+08 p/s. Moreover, the “Total Flux” value in the series on firefly luciferase came to 5.14E+09 p/s. Besides, in series [1], the PDI was found to be 0.156 and the “Particle Size” value is reported as 78.4 nm.
Regarding `CCCCCCCCCCN(C=O)CC(=O)N(CCCOC(=O)CCCCCCC)CC(=O)N(CC(=O)N(CCCn1ccnc1)CC(=O)N(CC(=O)N(CCCOC(=O)CCCCCCC)CC(=O)N(CCCCCCCCCC)CC(N)=O)CC(CC)CCCC)CC(CC)CCCC` (stereo not drawn) [Compound 114] (For-[NDecylGly][Gly(N-(CH2)3O-octanoyl)][N(2-ethylhexyl)Gly][N(3-imidazol-1-ylpropyl)Gly][N(2-ethylhexyl)Gly][Gly(N-(CH2)3O-octanoyl)][NDecylGly]-NH2), the hEPO in the series on hEPO was 23.7 ng/mL. Besides, in the series on mRNA, the “mean percent encapsulation of RNA” value was determined as 40.7%. Moreover, in the series on luciferase, the “IM Flux” value is 9.30E+07 p/s and the “SC Flux” value turned out to be 1.03E+08 p/s. For the same compound, the “Total Flux” value in the series on firefly luciferase worked out at 2.06E+08 p/s. Also, in series [1], the PDI is 0.245 and the “Particle Size” value was 119.7 nm.
Take `CCCCCCCC(=O)OCCCN(C=O)CC(=O)N(CCCOC(=O)CCCCCCC)CC(=O)N(CCc1ccccc1)CC(=O)N(CC(=O)N(CCCN1CCOCC1)CC(=O)N(CCCOC(=O)CCCCCCC)CC(=O)N(CCc1ccccc1)CC(=O)N(CCCOC(=O)CCCCCCC)CC(=O)N(CC(N)=O)CC(CC)CCCC)CC(CC)CCCC` (stereo not drawn) [Compound 125]: in the series on hEPO, the hEPO was found to be 13.4 ng/mL. Also, the “mean percent encapsulation of RNA” value in the series with mRNA is listed as 82.1%. Besides, in the series on luciferase, the “IM Flux” value was 9.45E+07 p/s and the “SC Flux” value is reported as 8.55E+07 p/s. The “Total Flux” value in the series with firefly luciferase is on record as 2.12E+09 p/s. In addition, in series [1], the PDI is on record as 0.111 and the “Particle Size” value came out at 86.2 nm.
In the case of `CCCCCCCCCCCC(=O)OCCCN(CC(=O)N(CCCOC(=O)CCCCCCCCCCC)CC(=O)N(CC(=O)N(CCCOC(=O)CCCCCCCCCCC)CC(=O)N(CCCOC(=O)CCCCCCCCCCC)CC(=O)N(CC(N)=O)CC(CC)CCCC)CC(CC)CCCC)C(=O)CNCCCn1ccnc1` (stereo not drawn) [Compound 68] (H-[N(3-imidazol-1-ylpropyl)Gly][N(3-lauroyloxypropyl)Gly][N(3-lauroyloxypropyl)Gly][N(2-ethylhexyl)Gly][N(3-lauroyloxypropyl)Gly][N(3-lauroyloxypropyl)Gly][N(2-ethylhexyl)Gly]-NH2), the hEPO with hEPO was determined as 72.6 ng/mL. For the same compound, the “mean percent encapsulation of RNA” value in the series with mRNA turned out to be 79.7%. Also, in the series with luciferase, the “IM Flux” value was 5.10E+06 p/s and the “SC Flux” value is given as 3.39E+08 p/s. Besides, in the series with firefly luciferase, the “Total Flux” value is on record as 4.20E+08 p/s. Further, in series [1], the PDI came out at 0.178 and the “Particle Size” value worked out at 87.2 nm.
Consider `CCCCCCCCCCCC(=O)OCCCN(CC(=O)N(CCCOC(=O)CCCCCCCCCCC)CC(=O)N(CCCCCC)CC(=O)N(CCCOC(=O)CCCCCCCCCCC)CC(=O)N(CCCOC(=O)CCCCCCCCCCC)CC(=O)N(CCCCCC)CC(N)=O)C(=O)CNCCCn1ccnc1` [Compound 73] (H-[N(3-imidazol-1-ylpropyl)Gly][N(3-lauroyloxypropyl)Gly][N(3-lauroyloxypropyl)Gly][NHexGly][N(3-lauroyloxypropyl)Gly][N(3-lauroyloxypropyl)Gly][NHexGly]-NH2), for which the hEPO with hEPO turned out to be 27.8 ng/mL. In addition, in the series with mRNA, the “mean percent encapsulation of RNA” value is reported as 66.2%. Further, in series [2], the “% of injected dose remaining in liver” value came out at 10.58%. Further, in the series on luciferase, the “IM Flux” value is listed as 5.36E+07 p/s and the “SC Flux” value is 6.38E+07 p/s. In series [1], the PDI was 0.289 and the “Particle Size” value is listed as 111.2 nm.
